One data set concerns TgCRND8 mice. As to the kind of experiment: Morris Water Maze spatial reference memory test in TgCRND8 mice. It counts as in vivo, mouse.
Another data set has as its target T1, Aβ42 (Homo sapiens, UniProt P05067).
T1 construct: from tissue; host or cells: hemi-brain homogenate of TgCRND8 transgenic mice
As to the kind of experiment: Plasma Aβ42 levels in TgCRND8 mice. Particulars: TgCRND8 mice following 28 days of therapy at five months of age. It counts as in vivo, mouse.

The next data set concerns synaptophysin. As to the kind of experiment: Synaptophysin quantification in CA1 region of the hippocampus. It counts as in vivo, mouse. Particulars: TgCRND8 mice; for increase of synaptophysin reactive boutons and cell bodies: vs untreated. The procedure: Synaptophysin immunohistochemical staining was performed on 3 evenly spaced saggital sections of paraformaldehyde-fixed treated and control mice. Sections were immunolabelled for synaptophysin with anti-synaptophysin IgG (1:40; Roche, Laval, PQ). Digital images were captured and analyzed as described above. Within each section, three randomly chosen 100 μm^2 areas of the CA1 region of the hippocampus were counted for synaptophysin reactive cell bodies and boutons. The results are expressed as the mean of the number of reactive bodies and boutons per 100 μm^2 [48, 49].

Data set [1] has as its system Aβ oligomers. It counts as in vivo. The following applies: rat. The text has this: The Aβ oligomers are naturally produced by cells transfected with genes that over-produce the amyloid precursor protein (APP). APP is cleaved by secretase(s) and the cells construct the oligomeric Aβ into molecules ranging from 2 to 12 amyloid proteins (2 mer to 12 mer) and secrete it into the culture medium (CM) of cultured cells. In addition, oligomeric Aβ is extracted from brain homogenate taken from transgenic mice (Tg2576) transfected with the Swedish APP mutation. […] These purified oligomeric forms of Aβ, at physiological concentrations relevant to those found in AD, are injected into the rat's lateral ventricle through an indwelling cannula while the animals are awake and moving. Two hours after injection the rats are tested under sensitive cognitive assay.
The assay, the Alternating Lever Cyclic Ratio (ALCR) test, has proven to be much more sensitive than previously published methods for measuring drug effects on cognitive function. In this task, rats must learn a complex sequence of lever-pressing requirements in order to earn food reinforcement in a two-lever experimental chamber. Subjects must alternate between two levers by switching to the other lever after pressing the first lever enough to get food reward. The exact number of presses required for each food reward changes, first increasing from 2 responses per food pellet up to 56 presses per food pellet, then decreasing back to 2 responses per pellet. Intermediate values are based on the quadratic function, x^2−x. One cycle is an entire ascending and descending sequence of these lever press requirements (e.g., 2, 6, 12, 20, 30, 42, 56, 56, 42, 30, 20, 12, 6, and 2 presses per food reward). Six such full cycles are presented during each daily session.
Oligomeric Aβ: Prepared from transfected Chinese Hamster Ovary Cells (7PA2 cells). These cells secrete oligomeric Aβ into the culture medium (CM) at physiological levels. Aβ oligomers was also derived from Tg2576 mouse brain and purified by size exclusion chromatography. Samples of oligomeric Aβ were characterized by Western Blot Analysis. Appropriate control compounds were produced and tested for each active Aβ oligomeric configuration. Rats: Forty (40) rats were trained under ALCR for approximately 3 months until their error rates are stable. Training sessions were conducted 5 days each week. Surgery: After training, all rats received a single 28 ga. cannula that was permanently affixed to the skull, and aimed at the lateral ventricle (divided equally between left and right). Rats were allowed 5 days to recover from surgery. Administration: In vivo administration of AZD103 to rats was performed by dissolving AZD103 into drinking water. Different concentrations were prepared, and the average daily water intake used to target specific average daily dose levels. These dose levels were therefore approximate. Testing: AZD 103 was tested against Aβ oligomers known to disrupt cognitive function. Two general procedures were incorporated. • 1. AZD 103 was incubated with the injectate medium containing Aβ oligomers prior to assessing it's affect on ALCR. Appropriate control injections were included un-incubated (untreated) Aβ oligomers as well as AZD 103 were injected ICV. • 2. Rats were treated with AZD 103, administered in drinking water, for at least 3-4 days prior to testing ICV injection of Aβ oligomers preparations known to affect cognitive function under ALCR.
Treatments were assessed in the following order: • 1. ICV 7PA2 CM alone • 2. ICV AZD 103 alone • 3. ICV ex vivo incubated 7PA2 CM with AZD 103 • All rats received treatments 1-3 in randomized order. • 4. ICV 7PA2 CM after 4 days treatment with PO AZD103 30 mg/kg/day. • 5. ICV 7PA2 CM after 4 days treatment with PO AZD103 100 mg/kg/day. • 6. ICV 7PA2 CM after 4 days treatment with PO AZD103 300 mg/kg/day. • 7. ICV 7PA2 CM after 4 days with no treatment. […]

In the next data set the test system is 7PA2 cells. It counts as cell-based, Chinese Hamster. The protocol:
Preparation of conditioned media: CHO— or 7PA2 cells were grown to ˜90% confluency. The cells were washed 1× in serum-free DMEM, then incubated overnight (˜15 hrs) in 4 ml/10 cm dish in serum-free DMEM, pen/strep, 1-glutamine with/without AZD-103. The following day, the conditioned media (CM) was collected, spun at 1000×g and treated with complete protease inhibitors (in mg/ml 1 leupeptin, 1 pepstatin, 0.1 aprotinin, 40 EDTA, and 2 mM 1/10 phenantroline) for biochemistry experiments or cell culture compatible protease inhibitors (Sigma P1860 1:1000) for electrophysiology experiments. The CM was stored at −80° C. until sufficient volumes were collected to complete a “batch”—typically ˜300 ml. […] The resulting concentrate was pooled, aliquoted in 1 ml fractions, and stored at −80° C. […] Therefore, for any given set of experiments (i.e. dose response curve, time curve, etc), a single batch is prepared and compared to 7PA2 alone within that batch.

In data set [2] the test system is Aβ oligomers. The following applies: rat, in vivo.
Chain of Aβ oligomers (P05067 672-711 limits assumed): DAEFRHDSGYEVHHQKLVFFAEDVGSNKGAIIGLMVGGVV
[3] abbreviates: ICV AZD103 alone, % of baseline errors.
Setting [4] is: ICV Aβ oligomers incubated ex vivo with AZD103, % of baseline errors.
[5] abbreviates: ICV oligomers after 4 days p.o. 30 mg/kg/day in drinking water.
Where [6] appears, read: ICV oligomers after 4 days p.o. 100 mg/kg/day in drinking water.
Setting [7] is: ICV oligomers after 4 days p.o. 300 mg/kg/day in drinking water.

“Also recorded” adds a separate entry of the source. Like-named read-outs stand apart in the source and are kept apart here.

T1 sequence (P05067 672-713 limits assumed): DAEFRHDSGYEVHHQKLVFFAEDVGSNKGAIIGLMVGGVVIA

As to “1,3,5/2,4,6-(scyllo-) cyclohexanehexol [Scyllo-cyclohexanehexol]”, the “effects on cognition and pathology” value with TgCRND8 mice (TgCRND8 mice, administered for 2 months, ending at 7 months of age) was “Sustained effects both on cognition and pathology were observed”. Moreover, in the data set with TgCRND8 mice (TgCRND8 mice, oral treatment for 28 days from 5 months of age, tested at 6 months), the “Spatial learning performance (Morris Water Maze) compared to untreated TgCRND8 littermates” value is “significantly better behavioural performance compared to untreated TgCRND8 mice; also recorded: significantly better than untreated TgCRND8 littermates”. Moreover, the “% time in target quadrant (probe trial, alternate measure)” value with TgCRND8 mice (separate cohort of TgCRND8 mice, data not shown) is listed as “not statistically different from non-Tg littermates”. Further, on Aβ42, the “Plasma Aβ42 levels” value turned out to be 990 ± 73 pg/mL. Moreover, the “number of synaptophysin reactive boutons and cell bodies in the CA1 region” value in the data set with synaptophysin (delayed treatment study) is reported as 2625±124 /100 μm^2; with synaptophysin (prophylactic study group), 2384±232 /100 μm^2. Besides, the results for the “increase of synaptophysin reactive boutons and cell bodies” value with synaptophysin (delayed treatment study) and in the data set on synaptophysin (prophylactic study group) were 150% and 148%, respectively. Besides, in the data set with Aβ oligomers [1] (ICV AZD103 alone), the “performance in ALCR when administered without oligomers” value is reported as “no impact on performance”. The Perseveration % errors in the data set on Aβ oligomers [1] (setting [3]) is listed as 99%; with Aβ oligomers [1] (setting [4]), 100%; in the data set with Aβ oligomers [1] (setting [5]), 120%; with Aβ oligomers [1] (setting [6]), 120%; with Aβ oligomers [1] (setting [7]), 99%. In addition, the Switching % errors in the data set on Aβ oligomers [1] (setting [3]) was found to be 99%; in the data set on Aβ oligomers [1] (setting [4]), 95%; with Aβ oligomers [1] (setting [5]), 109%; in the data set on Aβ oligomers [1] (setting [6]), 100%; with Aβ oligomers [1] (setting [7]) it was 109%. Besides, the “toxicity (7PA2 cells, APPs expression, LTP in CHO— conditions)” value in the data set with 7PA2 cells was “No direct evidence of AZD-103 toxicity was observed”. For the same substance, the “brain penetrance following oral dosing” value in the data set with Aβ oligomers [2] is “sufficiently brain penetrant”.
